From patent US10376465B2, “Monovalent metal cation dry powders for inhalation” (priority 2010, dated 2019)
Read-outs that look alike come from different tables or passages of the source.

How the values were obtained:
[1] = Solubility of salts and drugs in water / ethanol; type: physicochemical
From the text: Spray drying homogenous particles requires that the ingredients of interest be solubilized in solution or suspended in a uniform and stable suspension. Most of the materials mentioned in the material section are sufficiently water-soluble to prepare suitable spray drying solutions. […] As a result of these low solubilities, formulation feedstock development work was necessary to prepare solutions or suspensions that could be spray dried.
For the spray drying process, the salts, excipients and other drugs were dissolved or suspended in a solvent (e.g., water). The solid concentrations (w/v) were chosen dependent on the solubility of the different components (see Table 2). The ratios used for formulations were based on the molecular weight of the anhydrous salts (see Table 3).

[2] = tested on: mice sensitized and challenged with ovalbumin (OVA); conditions: literature (Riesenfeld 2010); cited from earlier work

Structure (SMILES)	solubility in ethanol [1]	solubility in water [1]	eosinophilic cells and total cellularity in the mouse OVA model [2]	solubility in ethanol ([1]; in words)	solubility in water ([1]; in words)
CCCC1O[C@@H]2C[C@H]3[C@@H]4CCC5=CC(=O)C=C[C@]5(C)[C@H]4[C@@H](O)C[C@]3(C)[C@]2(C(=O)CO)O1 (stereo partly shown) [Budesonide, budesonide]	slightly soluble	practically insoluble	–	–	–
CCC(=O)O[C@]1(C(=O)SCF)[C@H](C)C[C@H]2[C@@H]3C[C@H](F)C4=CC(=O)C=C[C@]4(C)[C@@]3(F)[C@@H](O)C[C@@]21C [Fluticasone propionate, fluticasone propionate]	slightly soluble	practically insoluble	reduce eosinophilic cells and total cellularity	–	–
OCc1cc(C(O)CNCCCCCCOCCCCc2ccccc2)ccc1O (stereo not shown) [salmeterol xinafoate]	–	–	–	slightly soluble	practically insoluble
